Values of other authors in article PMC3971013 (Journal of natural products, 2013).
Read-outs that look alike come from different tables or passages of the source. Non-standard residues stand in square brackets, D forms with d. Residues, ends and D or L forms follow the SMILES beside them. *: point of attachment. Octanoyl(2R-Me,7,8-dehydro) = C=CCCCC[C@@H](C)C(=O)*; Oct7ynoyl(2R-Me) = C#CCCCC[C@@H](C)C(=O)*; NMeF = CN[C@@H](Cc1ccccc1)C(=O)O; X4 = CC(=O)CCCC[C@@H](C)C(=O)*; Oct(7)enoyl = C=CCCCCCC(=O)*; Oct(7)ynoyl = C#CCCCCCC(=O)*; NMeV = CN[C@H](C(=O)O)C(C)C; Hept6ynoyl = C#CCCCCC(=O)*; NMeA = CN[C@@H](C)C(=O)O; X3 = C=CCCCCC(=O)*

System: Vero Cells
[1] = previously reported LD50 values

## C#CCCCCCC(=O)N(C)[C@H](C(=O)N(C)[C@H](C(=O)N(C)[C@H](C(=O)N(C)[C@@H](C)C(=O)N(C)[C@@H](Cc1ccccc1)C(=O)N(C)C)C(C)C)C(C)C)C(C)C [Compound 12] ({Oct(7)ynoyl}-[NMeV][NMeV][NMeV][NMeA][NMeF]-NMe2)
[1]
  LD50 Vero Cells: 159.4 µM

## C=CCCCCC(=O)N(C)[C@H](C(=O)N(C)[C@H](C(=O)N(C)[C@H](C(=O)N(C)[C@@H](C)C(=O)N(C)[C@@H](Cc1ccccc1)C(=O)N(C)C)C(C)C)C(C)C)C(C)C [Compound 11] (X3-[NMeV][NMeV][NMeV][NMeA][NMeF]-NMe2)
  LD50 Vero Cells: 93.1 µM

## C=CCCCCC(=O)N(C)[C@H](C(=O)N(C)[C@H](C(=O)N(C)[C@H](C(=O)N(C)[C@@H](C)C(=O)N(C)[C@@H](Cc1ccccc1)C(=O)OC)C(C)C)C(C)C)C(C)C [Compound 19] (X3-[NMeV][NMeV][NMeV][NMeA][NMeF]-OMe)
  LD50 Vero Cells: 24.7 µM

## C#CCCCCCC(=O)N(C)[C@H](C(=O)N(C)[C@H](C(=O)N(C)[C@H](C(=O)N(C)[C@@H](C)C(=O)N(C)[C@@H](Cc1ccccc1)C(=O)OC)C(C)C)C(C)C)C(C)C [Compound 20] ({Oct(7)ynoyl}-[NMeV][NMeV][NMeV][NMeA][NMeF]-OMe)
[1]
  LD50 Vero Cells: 27.0 µM

## C#CCCCC[C@@H](C)C(=O)N(C)[C@H](C(=O)N(C)[C@H](C(=O)N[C@H](C(=O)N(C)[C@@H](C)C(=O)N(C)[C@@H](Cc1ccccc1)C(N)=O)C(C)C)C(C)C)C(C)C [Almiramide B (8), Almiramide B] ({Oct7ynoyl(2R-Me)}-[NMeV][NMeV]V[NMeA][NMeF]-NH2)
[1]
  LD50 Vero Cells: 52.3 µM

## C=CCCCC[C@@H](C)C(=O)N(C)[C@H](C(=O)N(C)[C@H](C(=O)N[C@H](C(=O)N(C)[C@@H](C)C(=O)N(C)[C@@H](Cc1ccccc1)C(N)=O)C(C)C)C(C)C)C(C)C [Almiramide C (9), Almiramide C] ({Octanoyl(2R-Me,7,8-dehydro)}-[NMeV][NMeV]V[NMeA][NMeF]-NH2)
  LD50 Vero Cells: 33.1 µM

## C=CCCCCC(=O)N(C)[C@H](C(=O)N(C)[C@H](C(=O)N(C)[C@H](C(=O)N(C)[C@@H](C)C(=O)N(C)[C@@H](Cc1ccccc1)C(=O)O)C(C)C)C(C)C)C(C)C [Compound 15] (X3-[NMeV][NMeV][NMeV][NMeA][NMeF]-OH)
  LD50 Vero Cells: >70.0 µM

## C=CCCCCCC(=O)N(C)[C@H](C(=O)N(C)[C@H](C(=O)N(C)[C@H](C(=O)N(C)[C@@H](C)C(=O)N(C)[C@@H](Cc1ccccc1)C(=O)N(C)C)C(C)C)C(C)C)C(C)C [Compound 13] ({Oct(7)enoyl}-[NMeV][NMeV][NMeV][NMeA][NMeF]-NMe2)
  LD50 Vero Cells: 23.8 µM

## C=CCCCCCC(=O)N(C)[C@H](C(=O)N(C)[C@H](C(=O)N(C)[C@H](C(=O)N(C)[C@@H](C)C(=O)N(C)[C@@H](Cc1ccccc1)C(=O)OC)C(C)C)C(C)C)C(C)C [Compound 21] ({Oct(7)enoyl}-[NMeV][NMeV][NMeV][NMeA][NMeF]-OMe)
  LD50 Vero Cells: 18.8 µM

## C=CCCCCCC(=O)N(C)[C@H](C(=O)N(C)[C@H](C(=O)N(C)[C@H](C(=O)N(C)[C@@H](C)C(=O)N(C)[C@@H](Cc1ccccc1)C(=O)O)C(C)C)C(C)C)C(C)C [Compound 17] ({Oct(7)enoyl}-[NMeV][NMeV][NMeV][NMeA][NMeF]-OH)
  LD50 Vero Cells: 192.4 µM

## C#CCCCCC(=O)N(C)[C@H](C(=O)N(C)[C@H](C(=O)N(C)[C@H](C(=O)N(C)[C@@H](C)C(=O)N(C)[C@@H](Cc1ccccc1)C(=O)OC)C(C)C)C(C)C)C(C)C [Compound 18] (Hept6ynoyl-[NMeV][NMeV][NMeV][NMeA][NMeF]-OMe)
[1]
  LD50 Vero Cells: 41.4 µM

## C#CCCCCC(=O)N(C)[C@H](C(=O)N(C)[C@H](C(=O)N(C)[C@H](C(=O)N(C)[C@@H](C)C(=O)N(C)[C@@H](Cc1ccccc1)C(=O)N(C)C)C(C)C)C(C)C)C(C)C [Compound 10] (Hept6ynoyl-[NMeV][NMeV][NMeV][NMeA][NMeF]-NMe2)
  LD50 Vero Cells: 155.7 µM

## C#CCCCCC(=O)N(C)[C@H](C(=O)N(C)[C@H](C(=O)N(C)[C@H](C(=O)N(C)[C@@H](C)C(=O)N(C)[C@@H](Cc1ccccc1)C(=O)O)C(C)C)C(C)C)C(C)C [Compound 14] (Hept6ynoyl-[NMeV][NMeV][NMeV][NMeA][NMeF]-OH)
[1]
  LD50 Vero Cells: 281.1 µM

## CC(=O)CCCC[C@@H](C)C(=O)N(C)[C@H](C(=O)N(C)[C@H](C(=O)N[C@H](C(=O)N(C)[C@@H](C)C(=O)N(C)[C@@H](Cc1ccccc1)C(N)=O)C(C)C)C(C)C)C(C)C [Almiramide A (7), Almiramide A] (X4-[NMeV][NMeV]V[NMeA][NMeF]-NH2)
[1]
  LD50 Vero Cells: 113.1 µM

## C#CCCCCCC(=O)N(C)[C@H](C(=O)N(C)[C@H](C(=O)N(C)[C@H](C(=O)N(C)[C@@H](C)C(=O)N(C)[C@@H](Cc1ccccc1)C(=O)O)C(C)C)C(C)C)C(C)C [Compound 16] ({Oct(7)ynoyl}-[NMeV][NMeV][NMeV][NMeA][NMeF]-OH)
[1]
  LD50 Vero Cells: >68.9 µM
